According to patent US12612407B2, “Imidazo[2,1-f][1,2,4]triazin-4-amine derivatives as TLR7 agonist” (BEIGENE, LTD., priority 2020, dated 2026):

Each compound was assayed against T1, human TLR7 (Homo sapiens, UniProt Q9NYK1) (assay: HEK293-Blue hTLR7 Reporter Assay (QUANTI-BLUE, SEAP readout)). Conditions: HEK-Blue-hTLR7 cells, 24 hrs treatment, Table 1, B1-B232.
T1 construct: host or cells: HEK293 (HEK-Blue hTLR7)
T1 sequence (Q9NYK1 27-1049): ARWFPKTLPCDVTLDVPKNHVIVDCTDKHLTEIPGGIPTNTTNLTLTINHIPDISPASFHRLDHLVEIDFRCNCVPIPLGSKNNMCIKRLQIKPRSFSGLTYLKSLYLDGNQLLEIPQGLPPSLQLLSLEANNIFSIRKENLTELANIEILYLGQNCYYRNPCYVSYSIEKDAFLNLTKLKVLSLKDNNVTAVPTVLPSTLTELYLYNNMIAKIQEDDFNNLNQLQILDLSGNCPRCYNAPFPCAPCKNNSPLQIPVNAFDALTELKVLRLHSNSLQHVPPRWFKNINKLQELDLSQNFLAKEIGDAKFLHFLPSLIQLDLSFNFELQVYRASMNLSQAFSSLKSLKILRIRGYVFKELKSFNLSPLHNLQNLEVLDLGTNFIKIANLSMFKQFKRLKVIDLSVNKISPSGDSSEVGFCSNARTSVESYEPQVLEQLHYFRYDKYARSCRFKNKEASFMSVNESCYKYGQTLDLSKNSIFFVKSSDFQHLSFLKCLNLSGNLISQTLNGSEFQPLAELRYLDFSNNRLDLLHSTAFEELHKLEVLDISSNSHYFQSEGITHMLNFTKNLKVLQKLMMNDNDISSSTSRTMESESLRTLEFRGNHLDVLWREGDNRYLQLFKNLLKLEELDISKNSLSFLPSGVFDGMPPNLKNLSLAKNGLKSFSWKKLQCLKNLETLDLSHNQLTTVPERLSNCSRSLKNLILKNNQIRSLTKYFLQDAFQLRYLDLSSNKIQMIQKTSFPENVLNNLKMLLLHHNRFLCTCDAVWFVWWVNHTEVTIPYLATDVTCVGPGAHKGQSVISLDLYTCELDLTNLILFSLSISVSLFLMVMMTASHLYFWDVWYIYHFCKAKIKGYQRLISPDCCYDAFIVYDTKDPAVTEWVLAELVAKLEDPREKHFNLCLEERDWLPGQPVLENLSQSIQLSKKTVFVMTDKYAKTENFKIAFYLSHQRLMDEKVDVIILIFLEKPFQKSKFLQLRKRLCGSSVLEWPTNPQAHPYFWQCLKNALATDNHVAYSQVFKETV
Type: cell-based
How it was run: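 HEK-Blue-hTLR7 cells expressing NF-κB/AP-1-driven SEAP, 4×10^4 cells/well, treated 24 h at 37° C with increasing compound concentrations. Supernatant SEAP measured with Quanti-blue substrate (10-30 min, 37° C) at 620-655 nm; EC50 from sigmoidal dose-response fit.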
Compound `CCC(CC)Oc1nc(N)c2ncc(Cc3cnc(N4CCNCC4)c(C)c3)n2n1` [Compound B162, 7-((5-methyl-6-(piperazin-1-yl)pyridin-3-yl)methyl)-2-(pentan-3-yloxy)imidazo[2,1-f][1,2,4]triazin-4-amine] has an EC50 of 8 nM.
Compound `C=CC(=O)N1CCN(c2ncc(Cc3cnc4c(N)nc(OCCCC)nn34)cc2C)CC1` [Compound B44, 1-(4-(5-((4-amino-2-butoxyimidazo[2,1-f][1,2,4]triazin-7-yl)methyl)-3-methylpyridin-2-yl)piperazin-1-yl)prop-2-en-1-one] has an EC50 of 6660 nM.
`CCCCOc1nc(N)c2ncc(Cc3ccc(N4CCNCC4)c(OCC)c3)n2n1` [Compound B26, 2-butoxy-7-(3-ethoxy-4-(piperazin-1-yl)benzyl)imidazo[2,1-f][1,2,4]triazin-4-amine] showed an EC50 of 295 nM.
In the case of `CCCCOc1nc(N)c2ncc(Cc3cnc(N4CCN(C(=O)[C@@H](N)Cc5ccccc5)CC4)c(C)c3)n2n1` [Compound B81, (S)-2-amino-1-(4-(5-((4-amino-2-butoxyimidazo[2,1-f][1,2,4]triazin-7-yl)methyl)-3-methylpyridin-2-yl)piperazin-1-yl)-3-phenylpropan-1-one], the EC50 is reported as 4440 nM.
`CCC(CC)Nc1nc(N)c2ncc(Cc3cnc(N4CCN(C(=O)CN(C)C)CC4)c(C)c3)n2n1` [Compound B211, 1-(4-(5-((4-amino-2-(pentan-3-ylamino)imidazo[2,1-f][1,2,4]triazin-7-yl)methyl)-3-methylpyridin-2-yl)piperazin-1-yl)-2-(dimethylamino)ethan-1-one] showed an EC50 of 7.7 nM.
`CCCCOc1nc(N)c2ncc(Cc3cnc(N4CCC5(CCCC5)CC4)c(C)c3)n2n1` [Compound B83, 2-butoxy-7-((5-methyl-6-(8-azaspiro[4.5]decan-8-yl)pyridin-3-yl)methyl)imidazo[2,1-f][1,2,4]triazin-4-amine] showed an EC50 greater than 10000 nM.
Compound `CCCCOc1nc(N)c2ncc(Cc3cnc(N4CCN(C(=O)CN)CC4)c(C)c3)n2n1` [Compound B24, 2-amino-1-(4-(5-((4-amino-2-butoxyimidazo[2,1-f][1,2,4]triazin-7-yl)methyl)-3-methylpyridin-2-yl)piperazin-1-yl)ethan-1-one] has an EC50 of 210 nM.
With `CCC(C)Oc1nc(N)c2ncc(Cc3cnc(N4CCN(C(=O)CN(C)C)CC4)c(C)c3)n2n1` (stereo not drawn) [Compound B155, 1-(4-(5-((4-amino-2-(sec-butoxy)imidazo[2,1-f][1,2,4]triazin-7-yl)methyl)-3-methylpyridin-2-yl)piperazin-1-yl)-2-(dimethylamino)ethan-1-one] the EC50 was 8.3 nM.
For `CCCCOc1nc(N)c2ncc(Cc3cnc(N4CCN(C(=O)[C@@H](N)CC(C)C)CC4)c(C)c3)n2n1` [Compound B69, (S)-2-amino-1-(4-(5-((4-amino-2-butoxyimidazo[2,1-f][1,2,4]triazin-7-yl)methyl)-3-methylpyridin-2-yl)piperazin-1-yl)-4-methylpentan-1-one], the EC50 was 313 nM.
`CCC[C@H](C)Oc1nc(N)c2ncc(Cc3cnc(N4CCN(C(=O)CNC)CC4)c(C)c3)n2n1` [Compound B154, (S)-1-(4-(5-((4-amino-2-(pentan-2-yloxy)imidazo[2,1-f][1,2,4]triazin-7-yl)methyl)-3-methylpyridin-2-yl)piperazin-1-yl)-2-(methylamino)ethan-1-one] showed an EC50 of 1.6 nM.
Compound `CCCCOc1nc(N)c2ncc(Cc3cnc(N4CCC(CN5CCCC5)CC4)c(C)c3)n2n1` [Compound B121, 2-butoxy-7-((5-methyl-6-(4-(pyrrolidin-1-ylmethyl)piperidin-1-yl)pyridin-3-yl)methyl)imidazo[2,1-f][1,2,4]triazin-4-amine] has an EC50 of 31 nM.
With `CCC(CC)Nc1nc(N)c2ncc(Cc3cnc(N4CCC(CN(C)C)CC4)c(C)c3)n2n1` [Compound B208, 7-((6-(4-((dimethylamino)methyl)piperidin-1-yl)-5-methylpyridin-3-yl)methyl)-N2-(pentan-3-yl)imidazo[2,1-f][1,2,4]triazine-2,4-diamine] the EC50 was 7.4 nM.
Work on `CC[C@H](C)Oc1nc(N)c2ncc(Cc3cnc(N4CCN(C(=O)CNC)CC4)c(C)c3)n2n1` [Compound B146, (S)-1-(4-(5-((4-amino-2-(sec-butoxy)imidazo[2,1-f][1,2,4]triazin-7-yl)methyl)-3-methylpyridin-2-yl)piperazin-1-yl)-2-(methylamino)ethan-1-one] yielded an EC50 of 10 nM.
In the case of `CCCC(CCC)Nc1nc(N)c2ncc(Cc3cnc(N4CCC(CNC)CC4)c(C)c3)n2n1` [Compound B220, N2-(heptan-4-yl)-7-((5-methyl-6-(4-((methylamino)methyl)piperidin-1-yl)pyridin-3-yl)methyl)imidazo[2,1-f][1,2,4]triazine-2,4-diamine], the EC50 is reported as 3.6 nM.
`CCC(C)Oc1nc(N)c2ncc(Cc3cnc(N4CCN(C(=O)CNC)CC4)c(C)c3)n2n1` (stereo not drawn) [Compound B156, 1-(4-(5-((4-amino-2-(sec-butoxy)imidazo[2,1-f][1,2,4]triazin-7-yl)methyl)-3-methylpyridin-2-yl)piperazin-1-yl)-2-(methylamino)ethan-1-one] gave an EC50 of 9.7 nM.
For `CCCCOc1nc(N)c2ncc(Cc3cc(C)c(N4CCNCC4)cn3)n2n1` [Compound B33, 2-butoxy-7-((4-methyl-5-(piperazin-1-yl)pyridin-2-yl)methyl)imidazo[2,1-f][1,2,4]triazin-4-amine], the EC50 was 218 nM.
In the case of `CCC[C@@H](C)Nc1nc(N)c2ncc(Cc3cnc(N4CCNCC4)c(C)c3)n2n1` (single isomer, unassigned) [Compound B207], the EC50 is reported as 56 nM.
In the case of `CCCCOc1nc(N)c2ncc(Cc3cnc(N4CCC(CN)CC4)c(C)c3)n2n1` [Compound B144, 7-((6-(4-(aminomethyl)piperidin-1-yl)-5-methylpyridin-3-yl)methyl)-2-butoxyimidazo[2,1-f][1,2,4]triazin-4-amine], the EC50 is reported as greater than 10000 nM.
`COCCOCCOCCOCCOc1nc(N)c2ncc(Cc3cnc(N4CCNCC4)c(C)c3)n2n1` [Compound B100, 2-((2,5,8,11-tetraoxatridecan-13-yl)oxy)-7-((5-methyl-6-(piperazin-1-yl)pyridin-3-yl)methyl)imidazo[2,1-f][1,2,4]triazin-4-amine] showed an EC50 greater than 10000 nM.
Work on `CCCCOc1nc(N)c2ncc(Cc3cnc(N4CCN(C)CC4)c(Cl)c3)n2n1` [Compound B1, 2-butoxy-7-((5-chloro-6-(4-methylpiperazin-1-yl)pyridin-3-yl)methyl)imidazo[2,1-f][1,2,4]triazin-4-amine] yielded an EC50 of 501 nM.
`CCCC(CCC)Nc1nc(N)c2ncc(Cc3cnc(N4CCNCC4)c(C)c3)n2n1` [Compound B191, N2-(heptan-4-yl)-7-((5-methyl-6-(piperazin-1-yl)pyridin-3-yl)methyl)imidazo[2,1-f][1,2,4]triazine-2,4-diamine] gave an EC50 of 7.9 nM.
`CCCCOc1nc(N)c2ncc(Cc3cnc(N4CCN(C(=O)[C@@H](N)C(C)C)CC4)c(C)c3)n2n1` [Compound B70, (S)-2-amino-1-(4-(5-((4-amino-2-butoxyimidazo[2,1-f][1,2,4]triazin-7-yl)methyl)-3-methylpyridin-2-yl)piperazin-1-yl)-3-methylbutan-1-one] showed an EC50 of 212 nM.
With `Cc1cc(Cc2cnc3c(N)nc(O)nn23)cnc1N1CCNCC1` [Compound B29, 4-amino-7-((5-methyl-6-(piperazin-1-yl)pyridin-3-yl)methyl)imidazo[2,1-f][1,2,4]triazin-2-ol] the EC50 was greater than 10000 nM.
`Cc1cc(Cc2cnc3c(N)nc(OCCC(C)C)nn23)cnc1N1CCNCC1` [Compound B22, 2-(isopentyloxy)-7-((5-methyl-6-(piperazin-1-yl)pyridin-3-yl)methyl)imidazo[2,1-f][1,2,4]triazin-4-amine] was tested, and the EC50 was 496 nM.
Compound `CCCCOc1nc(N)c2ncc(Cc3cnc(N4CCN(CCOC)CC4)c(C)c3)n2n1` [Compound B107, 2-butoxy-7-((6-(4-(2-methoxyethyl)piperazin-1-yl)-5-methylpyridin-3-yl)methyl)imidazo[2,1-f][1,2,4]triazin-4-amine] has an EC50 of 185 nM.
For `Cc1cc(Cc2cnc3c(N)nc(OCCn4ccnc4)nn23)cnc1N1CCNCC1` [Compound B42, 2-(2-(1H-imidazol-1-yl)ethoxy)-7-((5-methyl-6-(piperazin-1-yl)pyridin-3-yl)methyl)imidazo[2,1-f][1,2,4]triazin-4-amine], the EC50 was greater than 10000 nM.
In the case of `CCCC(C)Nc1nc(N)c2ncc(Cc3cnc(N4CCN(C(=O)CNC)CC4)c(C)c3)n2n1` (stereo not drawn) [Compound B149, 1-(4-(5-((4-amino-2-(pentan-2-ylamino)imidazo[2,1-f][1,2,4]triazin-7-yl)methyl)-3-methylpyridin-2-yl)piperazin-1-yl)-2-(methylamino)ethan-1-one], the EC50 is reported as 6.3 nM.
